The values below come from patent publication US8188138B2, “Sulphonylpyrrole hydrochloride salts as histone deacetylases inhibitors” (4SC AG, priority 2005, dated 2012).

What all share (assay type): cell-based
For assay [1], the system named is HeLa cervical carcinoma cells. The assay is described as follows: Cellular cytotoxicity assay (Alamar Blue), HeLa. The conditions noted are these: Homo sapiens, 72 h, range stated for the listed group. As for the experimental part:
(§1) The anti-proliferative activity of the histone deacetylase inhibitory compounds as described herein, was evaluated using the following cell lines: HeLa and HeLa—KB (cervical carcinoma), H460 (non small cell lung cancer), A549 (non-small cell lung cancer), MCF7 (breast carcinoma), MCF10A (normal, non tumorigenic breast epithelial), MDA-MB468 (breast carcinoma), MDA-MB435 (breast carcinoma), MDA-MB231 (breast carcinoma), SKBR-3 (breast carcinoma), SKOV-3 (ovarial carcinoma), A-2780 (ovarial carcinoma), RKO (colon carcinoma), HCT-15 (colon carcinoma), HCT-116 (colon carcinoma), PC3 (prostate carcinoma), BPH1 (benign prostate hyperplasia), AsPC1 (pancreatic carcinoma), Cal27 (tongue carcinoma), A-431 (vulva carcinoma), HeclA (endometrial carcinoma), Saos-2 (osteosarcoma), U87MG (glioblastoma), WM266-4 (melanoma), K562 (chronic myeloid carcinoma), EOL1 (acute hypereosinophilic myeloid leukemia), CCRF-CEM and CCRF-CEM VCR1000 (acute lymphoblastic leukemia sensitive and resistant towards Vincristine). For quantification of cellular proliferation/living cells the Alamar Blue (Resazurin) cell viability assay was applied (O'Brien et al. Eur J Biochem 267, 5421-5426, 2000). In this assay Resazurin is reduced to the fluorescent resorufin by cellular dehydrogenase activity, correlating with viable, proliferating cells. The examples were dissolved as 20 mM solutions in dimethylsulfoxide (DMSO) and subsequently diluted in semi-logarithmic steps. Cell lines were seeded at respective density into 96 well flat bottom plates in a volume of 200 μl per well. 24 hours after seeding 1 μl each of the compound dilutions were added into each well of the 96 well plate. Each compound dilution was tested as quadruplicates. Wells containing untreated control cells were filled with 200 μl DMEM medium containing 0.5% v:v DMSO. The cells were then incubated with the substances for 72 hours at 37° C. in a humidified atmosphere containing 5% carbon dioxide. To determine the viability of the cells, 20 μl of an Resazurin solution (Sigma; 90 mg/l) were added. After 4 hours incubation at 37° C. the fluorescence was measured at an extinction of 544 nm and an emission of 590 nm. For the calculation of the cell viability the emission value from untreated cells was set as 100% viability and the emission rates of treated cells were set in relation to the values of untreated cells. Viabilities were expressed as % values. The corresponding IC50 values of the compounds for cytotoxic activity are determined from the concentration-effect curves by means of non-linear regression.
(In general: The colour change of resazurin is a common sign of viable cells or microbes.)

In assay [2] the test system is histone H3 hyperacetylation in HeLa cervical carcinoma cells. The assay is described as follows: Cellular histone H3 hyperacetylation assay. The note with it: Homo sapiens, 24 h, range stated for the listed group, read-out: Induction of histone H3 hyperacetylation EC50. The text has this:
To assess the cellular efficacy of a histone deacetylase inhibitor in vitro, an assay was set up in black clear-bottom 96-well plates and optimized for use on the Cellomics “ArrayScan II” platform for a quantitative calculation of histone acetylation. The protocol uses a polyclonal rabbit antibody, specifically binding to acetylated lysine 23 or, alternatively, acetylated lysine 9+14 of human histone H3 on fixed cells with an Alexa Fluor 488 labeled goat anti rabbit-IgG used for counterstaining (modified from Braunger et al. AACR annual conference 2003, Abstract 4556). 5×10^3 HeLa cervical carcinoma cells/well (ATCC CCL-2) in 200 μl Dulbecco's modified Eagle's medium (DMEM) containing 10% fetal calf serum are seeded at day 1 in Packard view plates and incubated for 24 h under standard cell culture conditions. On day 2, 1 μl test compound (200× final concentration) is added and incubation continued for further 24 h. On day 3, the culture medium is discarded and attached cells fixed for 15 min at room temperature by addition of 100 μl fixation buffer (3.7% v:v formaldehyde in phosphate buffered saline/PBS). After discarding the fixation buffer and one wash with blocking solution (1% BSA, 0.3% Tween 20 in PBS), cells are permeabilized at room temperature by addition of 100 μl/well permeabilization buffer (30.8 mM NaCl, 0.54 mM Na2HPO4, 0.31 mM KH2PO4, 0.1% v:v […]) for 15 min at room temperature. After discarding the permeabilization buffer and washing twice with 100 μl/well blocking solution at room temperature, the 1st antibody (anti-K23 histone H3 antibody, Cell Signaling No. 9674 or, alternatively, anti-K9+14 histone H3 antibody, Calbiochem No. 382158) in blocking solution (50 μl/well) is added. After incubation for 1 h at room temperature, the wells are washed twice at room temperature with 100 μl/well blocking solution before addition of the 2nd antibody (goat-anti-rabbit Alexa Fluor 488; MoBiTec No. A-11008) in blocking solution (50 μl/well). After further incubation for 1 h at room temperature, wells are washed twice with 100 μl/well blocking solution at room temperature. Finally, 100 μl/well PBS are added and image analysis performed on the Cellomics “ArrayScan II” platform. For EC50 determination, the percentage of positive cells showing nuclear fluorescence is determined and EC50 calculation done from concentration-effect curves by means of non-linear regression. For calibration, a positive (reference HDAC inhibitors like SAHA or NVP LBH-589) and a negative control were included.

Assay [3] relates to RKO colon carcinoma cells. The assay is described as follows: Cell-cycle dependent cytotoxicity, RKO exop21 cell system. The conditions noted are these: Homo sapiens, 72 h, range stated for the listed group. Here is the method: For determination of cell-cycle dependent cytotoxicity, the RKO exop21 cell system was applied (Schmidt et al. Oncogene 19: 2423-2429, 2000). Briefly, RKO cells with/without p21^waf1 expression (2×10^4 cells/well induced, 6×10^3 cells/well not induced) were treated with the examples for 72 h and metabolic activity quantified as described before. The expression of p21^waf1 was induced by treatment with Pronasterone A, causing a complete proliferation arrest of RKO cells in the G1 and G2 phases of the cell division cycle.

In assay [4] the test system is MDA-MB468 breast cancer cells. The assay is described as follows: Breast cancer cell differentiation assay (Nile Red, flow cytometry). The conditions noted are these: 24 h; for Neutral & phospholipids (%): differentiated cells; for Phospholipids (%): undifferentiated cells. As for the experimental part: For quantification of MDA-MB468 breast cancer cell differentiation (described by Munster et al. Canc. Res. 61(23), pp 8492, 2001), 1× E6 cells were seeded in 10 cm cell culture dishes and, after cultivation for 24 h, treated with HDI for further 24 h. Finally, cells were collected by trypsination, washed twice with PBS and resuspended in 1 ml of staining solution ([…] Nile Red in PBS). After incubation for at least 5 min at room temperature, cells were analysed by flow cytometry on a FACS Calibur device (Ex 488 nm, Em. at 530 nm/FL-1 and >630 nm/FL-3). From respective histograms the percentage of cells with fluorescence at 650 nm (phospholipids) and 530 nm+650 nm (phospho- and neutral lipids) were calculated. For microscopic analysis, MDA-MB468 cells were cultivated on two-well chamber slides, treated with test compound for 24 h, fixed with 1.5 vol % glutaraldehyde/PBS and finally treated with staining solution. After washing with PBS, cells were analysed by fluorescence microscopy.
The percentage of differentiated cells with neutral and phospholipids as well as undifferentiated cells with phospholipids only are summarized in the table 5.
For orientation: Flow cytometry measures light scatter and fluorescence of single cells or particles in a stream.

The next assay concerns A549 cell line. The assay is described as follows: Combination experiment with Trail in A549. The note with it: example at about its IC50 combined with Trail. Here is the method: A549 non-small cell lung cancer, MDA-MB468 breast cancer and […] colorectal cancer cell lines were pretreated with the examples for 4 h before adding the chemotherapeutic agents or Trail and further incubation for 72 h total. The IC50 values of these combinations were determined from concentration-effect curves and compared to IC50 values of cell treated with the anti-cancer agent only.

Assay [5] has as its system broad selection of non-malignant cell lines and fully transformed malignant cancer cell lines. The assay is described as follows: Anti-proliferative activity across cell line panel (Alamar Blue). The note with it: mean over non-malignant and malignant cell lines. As for the experimental part: as §1
[6] abbreviates: arrested RKO cells, p21waf1 expressed, read-out: RKO arrested (p21^waf1 expressed) IC50.
Where [7] appears, read: proliferating RKO cells, read-out: RKO proliferating IC50.

Like-named read-outs stand apart in the source and are kept apart here.

A word on the IC50: it is the midpoint of a concentration-inhibition curve. Usually EC50 stands for the concentration giving half of the maximal effect. In turn, `CN(C)c1ccc(S(=O)(=O)n2ccc(/C=C/C(=O)NO)c2)cc1` [Compound 4, (E)-3-[1-(4-Dimethylamino-benzenesulfonyl)-1H-pyrrol-3-yl]-N-hydroxy-acrylamide] displayed a half-maximal inhibitory concentration (IC50) in assay [1] of 800 to 21600 nM. Moreover, in assay [2], the 50% effective concentration (EC50) fell in the range of 2150 to 51300 nM.

Regarding `Nc1ccccc1NC(=O)/C=C/c1ccn(S(=O)(=O)c2ccc(-c3ccccc3)cc2)c1` [Compound 7, (E)-N-(2-Amino-phenyl)-3-[1-(biphenyl-4-sulfonyl)-1H-pyrrol-3-yl]-acrylamide], the IC50 in assay [1] lay within 800 to 21600 nM. The EC50 in assay [2] fell in the range of 2150 to 51300 nM.

As for `O=C(/C=C/c1ccn(S(=O)(=O)c2ccc(-c3ccccn3)s2)c1)NO` [Compound 24, (E)-N-Hydroxy-3-[1-(5-pyridin-2-yl-thiophene-2-sulfonyl)-1H-pyrrol-3-yl]-acrylamide], the IC50 was 450 to 15000 nM in assay [3] (setting [6]), 150 to 5100 nM in assay [3] (setting [7]), 70 to 5000 nM in assay [1] and 570 nM in assay [5]. The “Neutral & phospholipids (%)” value in assay [4] (0.8 μM) was 67.3%. Besides, in assay [4] (0.8 μM), the “Phospholipids (%)” value is reported as 27.9%. In addition, in the assay on A549 cell line, the “Effect of combination with Trail” value is “synergism is highly likely”. Further, the EC50 in assay [2] lay in the range of 80 to 16000 nM.

On to `CN(C)Cc1ccc(S(=O)(=O)n2ccc(/C=C/C(=O)NO)c2)cc1` [Compound 10, (E)-3-[1-(4-Dimethylaminomethyl-benzenesulfonyl)-1H-pyrrol-3-yl]-N-hydroxy-acrylamide], for which the IC50 in assay [3] (setting [6]) is 450 to 15000 nM; in assay [3] (setting [7]) it was 150 to 5100 nM; in assay [1] it was 70 to 5000 nM; in assay [5] it was 4600 nM. Further, the “Neutral & phospholipids (%)” value came out at 55.5% in assay [4] (2 μM) and 70.2% in assay [4] (5 μM). The entries for the “Phospholipids (%)” value in assay [4] (2 μM) and in assay [4] (5 μM) were 41.6% and 25.2%, respectively. The “Effect of combination with Trail” value in the assay on A549 cell line is “synergism is highly likely”.

For `O=C(/C=C/c1ccn(S(=O)(=O)c2ccc(-c3ccccc3)cc2)c1)NO` [Compound 3, (E)-3-[1-(Biphenyl-4-sulfonyl)-1H-pyrrol-3-yl]-N-hydroxy-acrylamide], the IC50 is 450 to 15000 nM in assay [3] (setting [6]), 150 to 5100 nM in assay [3] (setting [7]), 800 to 21600 nM in assay [1] and 850 nM in assay [5]. In addition, the “Neutral & phospholipids (%)” value is 34.6% in assay [4] (0.6 μM) and 51.2% in assay [4] (1.2 μM). The entries for the “Phospholipids (%)” value in assay [4] (0.6 μM) and in assay [4] (1.2 μM) were 62.6% and 45.7%, respectively. In the assay with A549 cell line, the “Effect of combination with Trail” value was “synergism is highly likely”.

In assay [1], `O=C(C=Cc1ccn(S(=O)(=O)Cc2ccccc2)c1)NO` [Compound 2, N-Hydroxy-3-(1-phenylmethanesulfonyl-1H-pyrrol-3-yl)-acrylamide] gave an IC50 of 800 to 21600 nM. The 50% effective concentration (EC50) in assay [2] was in the range of 2150 to 51300 nM.
